Starred links: 1 amine or outer side, 2 acyl side, 3 side chain; linkers in the order of their positions; H or OH if unused. Non-standard residues stand in square brackets, D forms with d. Residues, ends and D or L forms follow the SMILES beside them. Groups on a side chain read outwards from the residue. *: point of attachment. C20 diacid = O=C(O)CCCCCCCCCCCCCCCCCCC(=O)*; C18 diacid = O=C(O)CCCCCCCCCCCCCCCCC(=O)*; γGlu = O=C(O)[C@H](CCC(=O)[*:2])N[*:1]; αMeF = C[C@](N)(Cc1ccccc1)C(=O)O; AEEA = NCCOCCOCC(=O)O; Aib = CC(C)(N)C(=O)O
Columns and labels:
[1] = biological target: human GLP-1 receptor (hGLP-1R) (Homo sapiens, UniProt P43220); test: cAMP production (HTRF) in CHO cells expressing hGLP-1R; format: cell-based; set-up: expressed in transfected cells; conditions: for EC50: Table 6, peptides modified at position 17, cAMP in CHO hGLP-1R cells, geometric mean, read-out: hGLP-1R EC50; for % Relative Potency Ratio: Table 6, % GLP-1R activity relative to GLP-1 / % GlucR activity relative to glucagon
Procedure, shortened: (§1)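 Read-out: HTRF cAMP (anti-cAMP cryptate donor, cAMP-d2 acceptor in conjugate/lysis buffer), converted to % Delta F and fitted by 4-parameter logistic for EC50. Cell densities were 1×10^5 cells/mL (hGLP-1R) or 2×10^5 cells/mL (hGCGR). Stimulation lasted 30 min at room temperature.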

[2] = biological target: human glucagon receptor (hGCGR) (Homo sapiens, UniProt P47871); test: cAMP production (HTRF) in CHO cells expressing hGCGR; format: cell-based; set-up: expressed in transfected cells; conditions: Table 6, peptides modified at position 17; cAMP in CHO hGCGR cells; geometric mean; read-out: hGluc-R EC50
Procedure, shortened: as §1

Chain of human GLP-1 receptor (hGLP-1R) (P43220 24-463): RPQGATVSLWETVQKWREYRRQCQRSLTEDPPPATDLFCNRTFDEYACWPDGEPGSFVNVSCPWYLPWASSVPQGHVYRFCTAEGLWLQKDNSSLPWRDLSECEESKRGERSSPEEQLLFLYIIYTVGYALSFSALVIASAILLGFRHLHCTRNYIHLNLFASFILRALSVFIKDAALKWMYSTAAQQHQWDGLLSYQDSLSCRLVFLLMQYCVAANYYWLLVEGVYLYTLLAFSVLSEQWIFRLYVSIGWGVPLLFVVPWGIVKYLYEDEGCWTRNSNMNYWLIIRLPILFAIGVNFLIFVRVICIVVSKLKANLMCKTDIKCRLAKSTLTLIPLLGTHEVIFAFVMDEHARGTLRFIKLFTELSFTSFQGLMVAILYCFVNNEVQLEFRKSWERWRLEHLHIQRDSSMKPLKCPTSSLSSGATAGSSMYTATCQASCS
Chain of human glucagon receptor (hGCGR) (P47871 26-477): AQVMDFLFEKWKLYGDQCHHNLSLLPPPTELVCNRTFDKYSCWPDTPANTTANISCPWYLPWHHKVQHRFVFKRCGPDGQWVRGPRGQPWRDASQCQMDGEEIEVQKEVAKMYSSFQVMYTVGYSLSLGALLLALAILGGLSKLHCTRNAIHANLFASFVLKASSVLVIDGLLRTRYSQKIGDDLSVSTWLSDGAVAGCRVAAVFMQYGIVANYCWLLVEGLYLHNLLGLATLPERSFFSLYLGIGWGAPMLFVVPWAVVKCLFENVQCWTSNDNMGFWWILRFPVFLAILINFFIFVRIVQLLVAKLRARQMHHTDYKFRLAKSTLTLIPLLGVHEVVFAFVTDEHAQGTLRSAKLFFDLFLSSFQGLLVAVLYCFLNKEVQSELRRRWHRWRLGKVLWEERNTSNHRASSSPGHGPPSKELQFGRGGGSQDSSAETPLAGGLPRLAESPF

SMILES | EC50 [1] | % Relative Potency Ratio [1] | EC50 [2]
CC(C)C[C@H](NC(=O)[C@H](Cc1c[nH]c2ccccc12)NC(=O)[C@H](C)NC(=O)[C@@H](NC(=O)[C@H](Cc1ccccc1)NC(=O)[C@H](CC(=O)O)NC(=O)[C@H](CCCNC(=N)N)NC(=O)[C@H](C)NC(=O)[C@H](CCCNC(=N)N)NC(=O)[C@H](CCCCNC(=O)COCCOCCNC(=O)COCCOCCNC(=O)CC[C@H](NC(=O)CCCCCCCCCCCCCCCCCCC(=O)O)C(=O)O)NC(=O)[C@@H](NC(=O)[C@H](CC(=O)O)NC(=O)[C@H](CC(C)C)NC(=O)[C@](C)(Cc1ccccc1)NC(=O)[C@H](CCCCN)NC(=O)[C@H](CO)NC(=O)[C@@H](NC(=O)[C@H](CC(=O)O)NC(=O)[C@H](CO)NC(=O)[C@@H](NC(=O)[C@H](Cc1ccccc1)NC(=O)[C@@H](NC(=O)CNC(=O)[C@H](CCC(N)=O)NC(=O)C(C)(C)NC(=O)[C@@H](N)Cc1c[nH]cn1)[C@@H](C)O)[C@@H](C)O)C(C)C)[C@@H](C)O)C(C)C)C(=O)N[C@@H](CC(C)C)C(=O)N[C@@H](CCC(=O)O)C(=O)NC(C)(C)C(=O)NCC(=O)O [Peptide 506] (H-H[Aib]QGTFTSDVSK[αMeF]LDTK([AEEA-AEEA-γGlu-C20 diacid])RARDFVAWLLE[Aib]G-OH; N-terminus assumed) | 0.162 nM | 1.8 | 0.149 nM
CC(C)C[C@H](NC(=O)[C@H](Cc1c[nH]c2ccccc12)NC(=O)[C@H](C)NC(=O)[C@@H](NC(=O)[C@H](Cc1ccccc1)NC(=O)[C@H](CC(=O)O)NC(=O)[C@H](CCCNC(=N)N)NC(=O)[C@H](C)NC(=O)[C@H](CCCNC(=N)N)NC(=O)[C@H](CCCCNC(=O)COCCOCCNC(=O)COCCOCCNC(=O)CC[C@H](NC(=O)CCCCCCCCCCCCCCCCCCC(=O)O)C(=O)O)NC(=O)[C@@H](NC(=O)[C@H](CC(=O)O)NC(=O)[C@H](CC(C)C)NC(=O)[C@](C)(Cc1ccccc1)NC(=O)[C@H](CCCCN)NC(=O)[C@H](CO)NC(=O)[C@@H](NC(=O)[C@H](CC(=O)O)NC(=O)[C@H](CO)NC(=O)[C@@H](NC(=O)[C@H](Cc1ccccc1)NC(=O)[C@@H](NC(=O)CNC(=O)[C@H](CCC(N)=O)NC(=O)C(C)(C)NC(=O)[C@@H](N)Cc1c[nH]cn1)[C@@H](C)O)[C@@H](C)O)C(C)C)[C@@H](C)O)C(C)C)C(=O)N[C@@H](CC(C)C)C(=O)N[C@@H](CCC(=O)O)C(=O)NC(C)(C)C(=O)NCC(N)=O [Peptide 507] | 0.0529 nM | 3.2 | 0.0866 nM
CC(C)C[C@H](NC(=O)[C@H](Cc1c[nH]c2ccccc12)NC(=O)[C@H](CCCNC(=N)N)NC(=O)[C@@H](NC(=O)[C@H](Cc1ccccc1)NC(=O)[C@H](CC(=O)O)NC(=O)[C@H](CCC(N)=O)NC(=O)[C@H](C)NC(=O)[C@H](CCCNC(=N)N)NC(=O)[C@H](CCCCNC(=O)COCCOCCNC(=O)COCCOCCNC(=O)CC[C@H](NC(=O)CCCCCCCCCCCCCCCCCCC(=O)O)C(=O)O)NC(=O)[C@H](CO)NC(=O)[C@H](CCC(=O)O)NC(=O)[C@H](CC(C)C)NC(=O)[C@](C)(Cc1ccccc1)NC(=O)[C@H](CCCCN)NC(=O)[C@H](CO)NC(=O)[C@@H](NC(=O)[C@H](CC(=O)O)NC(=O)[C@H](CO)NC(=O)[C@@H](NC(=O)[C@H](Cc1ccccc1)NC(=O)[C@@H](NC(=O)CNC(=O)[C@H](CCC(N)=O)NC(=O)C(C)(C)NC(=O)[C@@H](N)Cc1c[nH]cn1)[C@@H](C)O)[C@@H](C)O)C(C)C)C(C)C)C(=O)N[C@H](C(=O)N[C@@H](CCC(=O)O)C(=O)NC(C)(C)C(=O)NCC(N)=O)C(C)C [Peptide 508] (H-H[Aib]QGTFTSDVSK[αMeF]LESK([AEEA-AEEA-γGlu-C20 diacid])RAQDFVRWLVE[Aib]G-NH2) | 0.0679 nM | 81.6 | 2.8 nM
CC(C)C[C@H](NC(=O)[C@H](Cc1c[nH]c2ccccc12)NC(=O)[C@H](CCCNC(=N)N)NC(=O)[C@@H](NC(=O)[C@H](Cc1ccccc1)NC(=O)[C@H](CC(=O)O)NC(=O)[C@H](CCC(N)=O)NC(=O)[C@H](C)NC(=O)[C@H](CCCNC(=N)N)NC(=O)[C@H](CCCCNC(=O)COCCOCCNC(=O)COCCOCCNC(=O)CC[C@H](NC(=O)CCCCCCCCCCCCCCCCCCC(=O)O)C(=O)O)NC(=O)[C@H](CO)NC(=O)[C@H](CCC(=O)O)NC(=O)[C@H](CC(C)C)NC(=O)[C@](C)(Cc1ccccc1)NC(=O)[C@H](CCCCN)NC(=O)[C@H](CO)NC(=O)[C@@H](NC(=O)[C@H](CC(=O)O)NC(=O)[C@H](CO)NC(=O)[C@@H](NC(=O)[C@H](Cc1ccccc1)NC(=O)[C@@H](NC(=O)CNC(=O)[C@H](CCC(N)=O)NC(=O)C(C)(C)NC(=O)[C@@H](N)Cc1c[nH]cn1)[C@@H](C)O)[C@@H](C)O)C(C)C)C(C)C)C(=O)N[C@@H](CC(C)C)C(=O)NC(C)(C)C(=O)N[C@H](C(=O)N[C@@H](CCC(=O)O)C(=O)O)[C@@H](C)O [Peptide 509] (H-H[Aib]QGTFTSDVSK[αMeF]LESK([AEEA-AEEA-γGlu-C20 diacid])RAQDFVRWLL[Aib]TE-OH; N-terminus assumed) | 0.594 nM | 10.1 | 3.02 nM
CC(C)C[C@H](NC(=O)[C@H](Cc1c[nH]c2ccccc12)NC(=O)[C@H](CCCNC(=N)N)NC(=O)[C@@H](NC(=O)[C@H](Cc1ccccc1)NC(=O)[C@H](CC(=O)O)NC(=O)[C@H](CCCNC(=N)N)NC(=O)[C@H](C)NC(=O)[C@H](CCCNC(=N)N)NC(=O)[C@H](CCCCNC(=O)COCCOCCNC(=O)COCCOCCNC(=O)CC[C@H](NC(=O)CCCCCCCCCCCCCCCCCCC(=O)O)C(=O)O)NC(=O)[C@@H](NC(=O)[C@H](CC(=O)O)NC(=O)[C@H](CC(C)C)NC(=O)[C@](C)(Cc1ccccc1)NC(=O)[C@H](CCCCN)NC(=O)[C@H](CO)NC(=O)[C@@H](NC(=O)[C@H](CC(=O)O)NC(=O)[C@H](CO)NC(=O)[C@@H](NC(=O)[C@H](Cc1ccccc1)NC(=O)[C@@H](NC(=O)CNC(=O)[C@H](CCC(N)=O)NC(=O)C(C)(C)NC(=O)[C@@H](N)Cc1c[nH]cn1)[C@@H](C)O)[C@@H](C)O)C(C)C)[C@@H](C)O)C(C)C)C(=O)N[C@@H](CC(C)C)C(=O)NC(C)(C)C(=O)N[C@@H](CCC(=O)O)C(=O)O [Peptide 510] (H-H[Aib]QGTFTSDVSK[αMeF]LDTK([AEEA-AEEA-γGlu-C20 diacid])RARDFVRWLL[Aib]E-OH; N-terminus assumed) | 0.176 nM | 1.3 | 0.118 nM
CC(C)C[C@H](NC(=O)[C@H](Cc1c[nH]c2ccccc12)NC(=O)[C@H](CCCNC(=N)N)NC(=O)[C@@H](NC(=O)[C@H](Cc1ccccc1)NC(=O)[C@H](CC(=O)O)NC(=O)[C@H](CCCNC(=N)N)NC(=O)[C@H](C)NC(=O)[C@H](CCCNC(=N)N)NC(=O)[C@H](CCCCNC(=O)COCCOCCNC(=O)COCCOCCNC(=O)CC[C@H](NC(=O)CCCCCCCCCCCCCCCCCCC(=O)O)C(=O)O)NC(=O)[C@@H](NC(=O)[C@H](CC(=O)O)NC(=O)[C@H](CC(C)C)NC(=O)[C@](C)(Cc1ccccc1)NC(=O)[C@H](CCCCN)NC(=O)[C@H](CO)NC(=O)[C@@H](NC(=O)[C@H](CC(=O)O)NC(=O)[C@H](CO)NC(=O)[C@@H](NC(=O)[C@H](Cc1ccccc1)NC(=O)[C@@H](NC(=O)CNC(=O)[C@H](CCC(N)=O)NC(=O)C(C)(C)NC(=O)[C@@H](N)Cc1c[nH]cn1)[C@@H](C)O)[C@@H](C)O)C(C)C)[C@@H](C)O)C(C)C)C(=O)N[C@@H](CC(C)C)C(=O)NC(C)(C)C(=O)N[C@@H](CCC(=O)O)C(N)=O [Peptide 511] (H-H[Aib]QGTFTSDVSK[αMeF]LDTK([AEEA-AEEA-γGlu-C20 diacid])RARDFVRWLL[Aib]E-NH2; N-terminus assumed) | 0.118 nM | 2.4 | 0.14 nM
CC(C)C[C@H](NC(=O)[C@H](CC(C)C)NC(=O)[C@H](Cc1c[nH]c2ccccc12)NC(=O)[C@H](CCCNC(=N)N)NC(=O)[C@@H](NC(=O)[C@](C)(Cc1ccccc1)NC(=O)[C@H](CC(=O)O)NC(=O)[C@H](CCC(N)=O)NC(=O)[C@H](C)NC(=O)[C@H](CCCNC(=N)N)NC(=O)[C@H](CCCCNC(=O)COCCOCCNC(=O)COCCOCCNC(=O)CC[C@H](NC(=O)CCCCCCCCCCCCCCCCC(=O)O)C(=O)O)NC(=O)[C@@H](NC(=O)[C@H](CC(=O)O)NC(=O)[C@H](CC(C)C)NC(=O)[C@](C)(Cc1ccccc1)NC(=O)[C@H](CCCCN)NC(=O)[C@H](CO)NC(=O)[C@@H](NC(=O)[C@H](CC(=O)O)NC(=O)[C@H](CO)NC(=O)[C@@H](NC(=O)[C@](C)(Cc1ccccc1)NC(=O)[C@@H](NC(=O)CNC(=O)[C@H](CCC(N)=O)NC(=O)C(C)(C)NC(=O)[C@@H](N)Cc1c[nH]cn1)[C@@H](C)O)[C@@H](C)O)C(C)C)[C@@H](C)O)C(C)C)C(=O)N[C@@H](C)C(=O)NC(C)(C)C(=O)NCC(N)=O [Peptide 512] (H-H[Aib]QGT[αMeF]TSDVSK[αMeF]LDTK([AEEA-AEEA-γGlu-C18 diacid])RAQD[αMeF]VRWLLA[Aib]G-NH2; N-terminus assumed) | 0.159 nM | 28.7 | 2.31 nM

Source: US20250353891A1 (MEDIMMUNE LIMITED, priority 2022, published 2025)
